The target of one assay is T1, human ROCKα/ROCKII mix (Homo sapiens, UniProt O75116).
T1 construct: purchased Upstate Biotechnology 14-451
Kind of assay: Biochemical assay for ROCK (fluorescence polarization, ROCK IMAP Kit). (Fluorescence polarisation rises when a labelled molecule tumbles more slowly, as on binding a larger partner.)

A further assay has as its target T2, PKC epsilon (Homo sapiens, UniProt Q02156).
T2 construct: purchased Invitrogen P2282
T2 sequence (Q02156 1-737): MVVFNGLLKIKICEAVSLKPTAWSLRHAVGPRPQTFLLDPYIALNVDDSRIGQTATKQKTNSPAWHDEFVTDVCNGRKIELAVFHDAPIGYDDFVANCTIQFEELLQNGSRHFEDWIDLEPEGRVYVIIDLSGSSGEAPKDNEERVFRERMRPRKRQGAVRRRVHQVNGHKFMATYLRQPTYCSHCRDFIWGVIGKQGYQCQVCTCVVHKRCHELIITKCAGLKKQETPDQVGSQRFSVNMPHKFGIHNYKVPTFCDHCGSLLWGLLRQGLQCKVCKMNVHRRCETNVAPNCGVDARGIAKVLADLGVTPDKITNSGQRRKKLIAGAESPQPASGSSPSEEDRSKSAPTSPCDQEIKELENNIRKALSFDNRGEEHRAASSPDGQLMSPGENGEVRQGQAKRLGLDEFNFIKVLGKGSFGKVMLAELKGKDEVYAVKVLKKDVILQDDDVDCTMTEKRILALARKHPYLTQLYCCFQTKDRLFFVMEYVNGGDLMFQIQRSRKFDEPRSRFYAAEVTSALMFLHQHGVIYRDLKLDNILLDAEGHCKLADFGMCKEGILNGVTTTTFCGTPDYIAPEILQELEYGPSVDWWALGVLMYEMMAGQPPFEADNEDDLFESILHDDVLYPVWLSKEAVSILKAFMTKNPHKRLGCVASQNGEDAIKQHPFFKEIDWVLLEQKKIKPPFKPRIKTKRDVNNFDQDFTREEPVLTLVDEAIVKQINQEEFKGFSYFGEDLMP
Kind of assay: Biochemical assay for PKC epsilon (fluorescence polarization, Protein Kinase C Assay Kit, Red). The settings on record: read-out: IC50 μM PKCε. An outline of the steps:
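Read-out was fluorescence-polarization competition between phosphorylated substrate and a rhodamine PKC tracer for an anti-phosphoserine antibody, added with EDTA stop after an 80 min room-temperature kinase reaction with ATP and protein substrate (Mg2+/Ca2+ buffer). Enzyme (10 ng/ml final) was preincubated with compound for 30 min.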

The mark [1] stands for this setting: compounds of Formula XIV, Table 3.
Setting [2] is: Table 2, compounds of Formula XIII.

The IC50 is the concentration needed to halve the response being measured.

Where two headings read alike, the source gives them in different places.

T1 sequence (O75116 11-552 limits assumed): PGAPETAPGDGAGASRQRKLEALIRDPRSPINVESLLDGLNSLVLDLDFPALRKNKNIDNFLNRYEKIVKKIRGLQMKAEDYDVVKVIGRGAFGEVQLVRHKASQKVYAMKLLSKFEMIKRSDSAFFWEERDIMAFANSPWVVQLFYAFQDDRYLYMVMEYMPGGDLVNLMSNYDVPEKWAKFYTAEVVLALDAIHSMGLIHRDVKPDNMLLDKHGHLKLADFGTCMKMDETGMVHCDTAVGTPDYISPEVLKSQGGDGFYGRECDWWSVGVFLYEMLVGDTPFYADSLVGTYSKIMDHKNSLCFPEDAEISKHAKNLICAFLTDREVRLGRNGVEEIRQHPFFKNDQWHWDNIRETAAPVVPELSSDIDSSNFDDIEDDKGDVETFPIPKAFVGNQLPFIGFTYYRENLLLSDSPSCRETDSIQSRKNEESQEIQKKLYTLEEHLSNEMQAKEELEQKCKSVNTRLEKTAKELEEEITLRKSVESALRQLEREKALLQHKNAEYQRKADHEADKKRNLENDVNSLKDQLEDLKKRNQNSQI

On to `NC(CC(=O)NCc1ccc(F)c(C(F)(F)F)c1)c1ccc(C(=O)Nc2ccncc2)cc1` (stereo not shown) [Compound 266, 4-[1-Amino-2-(4-fluoro-3-trifluoromethyl-benzylcarbamoyl)-ethyl]-N-pyridin-4-yl-benzamide], for which the IC50 against human ROCKα/ROCKII mix (setting [1]) fell in the range of 0.05 to 0.5 µM; at PKC epsilon (setting [1]), 0.5 to 5 µM.
As to `NC(CNC(=O)CCC1CCCCC1)c1ccc(C(=O)Nc2ccncc2)cc1` (stereo not shown) [Compound 52, 4-[1-Amino-2-(3-cyclohexyl-propionylamino)-ethyl]-N-pyridin-4-yl-benzamide], the IC50 was 0.05 to 0.5 µM on human ROCKα/ROCKII mix (setting [2]) and 0.5 to 5 µM at PKC epsilon (setting [2]).
Turning to `CC(C)=NOC(C)C(=O)NCC(N)c1ccc(C(=O)Nc2ccncc2)cc1` (stereo not shown) [Compound 59, 4-[1-Amino-2-(2-isopropylideneaminooxy-propionylamino)-ethyl]-N-pyridin-4-yl-benzamide], the IC50 against human ROCKα/ROCKII mix (setting [2]) and on PKC epsilon (setting [2]) was 0.5 to 5 µM in each case.
Consider `NC(CNC(=O)Nc1cccc2ccccc12)c1ccc(C(=O)Nc2ccncc2)cc1` (stereo not shown) [Compound 28, 4-[1-amino-2-(3-naphtalen-1-yl-ureido)-ethyl]-N-pyridin-4-yl-benzamide], for which the results for the IC50 against human ROCKα/ROCKII mix and on PKC epsilon were 0.05 to 0.5 µM and 0.5 to 5 µM, respectively.
Consider `NC(CNC(=O)c1ccnc2ccccc12)c1ccc(C(=O)Nc2ccncc2)cc1` (stereo not shown) [Compound 111, Quinoline-4-carboxylic acid {2-amino-2-[4-(pyridin-4-ylcarbamoyl)-phenyl]-ethyl}-amide], for which the half-maximal inhibitory concentration (IC50) against human ROCKα/ROCKII mix (setting [2]) and at PKC epsilon (setting [2]) was 0.5 to 5 µM in each case.
As for `NC(CNC(=O)Cc1cccs1)c1ccc(C(=O)Nc2ccncc2)cc1` (stereo not shown) [Compound 153, 4-[1-amino-2-(2-thiophen-2-yl-acetylamino)-ethyl]-N-pyridin-4-yl-benzamide], the values for the IC50 against human ROCKα/ROCKII mix (setting [2]) and at PKC epsilon (setting [2]) were 0.05 to 0.5 µM and 0.5 to 5 µM, respectively.
Turning to `Cc1cccc(CC(=O)NCC(N)c2ccc(C(=O)Nc3ccncc3)cc2)c1` (stereo not shown) [Compound 143, 4-{1-Amino-2-[2-(3-methyl-phenyl)-acetylamino]-ethyl}-N-pyridin-4-yl-benzamide], the values for the 50% inhibitory concentration (IC50) against human ROCKα/ROCKII mix (setting [2]) and on PKC epsilon (setting [2]) were 0.05 to 0.5 µM and 0.5 to 5 µM, respectively.
Take `CN(CCO)C(=O)CC(N)c1ccc(C(=O)Nc2ccncc2)cc1` (stereo not shown) [Compound 179, 4-{1-amino-2-[(2-hydroxy-ethyl)-methyl-carbamoyl]-ethyl}-N-pyridin-4-yl-benzamide]: the IC50 against human ROCKα/ROCKII mix (setting [1]) was 0.05 to 0.5 µM; at PKC epsilon (setting [1]), 0.5 to 5 µM.
Consider `Nc1c(C(=O)NCC(N)c2ccc(C(=O)Nc3ccncc3)cc2)cnn1-c1ccc(F)cc1` (stereo not shown) [Compound 123, 5-Amino-1-(4-fluorophenyl)-1H-pyrazole-4-carboxylic acid {2-amino-2-[4-(pyridin-4-ylcarbamoyl)-phenyl]-ethyl}-amide], for which the IC50 on human ROCKα/ROCKII mix (setting [2]) is 0.5 to 5 µM; at PKC epsilon (setting [2]) it was 5 to 50 µM.
With `CCNS(=O)(=O)c1cccc(C(=O)NCC(N)c2ccc(C(=O)Nc3ccncc3)cc2)c1` (stereo not shown) [Compound 97, 4-[1-amino-2-(3-ethylsulfamoyl-benzoylamino)-ethyl]-N-pyridin-4-yl-benzamide], the IC50 on human ROCKα/ROCKII mix (setting [2]) and at PKC epsilon (setting [2]) was 0.5 to 5 µM throughout.
For the molecule `NC(c1ccc(C(=O)Nc2ccncc2)cc1)C1CCCN1C(=O)Cc1ccccc1F` (stereo not shown) [Compound 567, 4-(Amino-{1-[2-(2-fluoro-phenyl)-acetyl]-pyrrolidin-2-yl}-methyl)-N-pyridin-4-yl-benzamide], the results for the IC50 against human ROCKα/ROCKII mix and on PKC epsilon were 0.05 to 0.5 µM and 5 to 50 µM, respectively.
In the case of `NC(CNC(=O)CCc1ccc(F)cc1)c1ccc(C(=O)Nc2ccncc2)cc1` (stereo not shown) [Compound 163, 4-{1-amino-2-[3-(4-fluoro-phenyl)-propionylamino]-ethyl}-N-pyridin-4-yl-benzamide], the IC50 at human ROCKα/ROCKII mix (setting [2]) and at PKC epsilon (setting [2]) was 0.05 to 0.5 µM in each case.
In the case of `NC(c1ccc(C(=O)Nc2ccncc2)cc1)C1CCCN1C(=O)C1CCSc2ccccc21` (stereo not shown) [Compound 618, 4-{Amino[1-(thiochroman-4-carbonyl)-pyrrolidin-2-yl]-methyl}-N-pyridin-4-yl-benzamide], the IC50 on human ROCKα/ROCKII mix and on PKC epsilon was 0.5 to 5 µM each time.
Turning to `NC(CC(=O)NCc1ccccc1)c1ccc(C(=O)Nc2ccncc2)cc1` (stereo not shown) [Compound 213, 4-(1-Amino-2-benzylcarbamoyl-ethyl)-N-pyridin-4-yl-benzamide], the IC50 at human ROCKα/ROCKII mix (setting [1]) was 0.05 to 0.5 µM; on PKC epsilon (setting [1]) it was 0.5 to 5 µM.
As to “4-[1-Amino-2-(phenethyl- phenyl-carbamoyl)-ethyl]-N- pyridin-4-yl-benzamide [Compound 286]”, the IC50 against human ROCKα/ROCKII mix (setting [1]) fell in the range of 0.05 to 0.5 µM; at PKC epsilon (setting [1]), 0.5 to 5 µM.
On to “4-(1-Amino-2-{[2-(3-fluoro- phenyl)-acetyl]-methyl- amino}-ethyl)- N-pyridin-4-yl-benzamide [Compound 468]”, for which the IC50 against human ROCKα/ROCKII mix was 0.5 to 5 µM; on PKC epsilon it was 5 to 50 µM.
In the case of `CCC(Oc1ccccc1)C(=O)NCC(N)c1ccc(C(=O)Nc2ccncc2)cc1` (stereo not shown) [Compound 158, 4-[1-Amino-2-(2-phenoxy-butyrylamino)-ethyl]-N-pyridin-4-yl-benzamide], the IC50 is 0.05 to 0.5 µM against human ROCKα/ROCKII mix (setting [2]) and 0.5 to 5 µM at PKC epsilon (setting [2]).
For `COc1ccccc1C(=O)NCC(N)c1ccc(C(=O)Nc2ccncc2)cc1` (stereo not shown) [Compound 72, 4-[1-amino-2-(2-methoxy-benzoylamino)-ethyl]-N-pyridin-4-yl-benzamide] the same measures were 0.5 to 5 µM and 0.5 to 5 µM.
Regarding `NC(c1ccc(C(=O)Nc2ccncc2)cc1)C1CCCN1C(=O)Cc1cccc2ccccc12` (stereo not shown) [Compound 536, 4-{Amino-[1-(2-naphthalen-1-yl-acetyl)-pyrrolidin-2-yl]-methyl}-N-pyridin-4-yl-benzamide], the IC50 on human ROCKα/ROCKII mix and at PKC epsilon was 0.5 to 5 µM each time.
Regarding `NC(CNC(=O)CNC(=O)c1ccco1)c1ccc(C(=O)Nc2ccncc2)cc1` (stereo not shown) [Compound 56, Furan-2-carboxylic acid ({2-amino-2-[4-(pyridin-4-ylcarbamoyl)-phenyl]-ethylcarbamoyl}-methyl)-amide], the IC50 against human ROCKα/ROCKII mix (setting [2]) was 0.05 to 0.5 µM; at PKC epsilon (setting [2]) it was 5 to 50 µM.
Regarding `NC(c1ccc(C(=O)Nc2ccncc2)cc1)C1CCCN1C(=O)C1(c2ccc(Cl)cc2Cl)CC1` (stereo not shown) [Compound 596, 4-(Amino-{1-[1-(2,4-dichloro-phenyl)-cyclopropanecarbonyl]-pyrrolidin-2-yl}-methyl)-N-pyridin-4-yl-benzamide], the figures for the IC50 on human ROCKα/ROCKII mix and at PKC epsilon were 0.5 to 5 µM and 5 to 50 µM, respectively.
On to `COc1ccc2[nH]c(C(=O)NCC(N)c3ccc(C(=O)Nc4ccncc4)cc3)cc2c1` (stereo not shown) [Compound 128, 5-Methoxy-1H-indole-2-carboxylic acid {2-amino-2-[4-(pyridin-4-ylcarbamoyl)-phenyl]-ethyl}-amide], for which the IC50 at human ROCKα/ROCKII mix (setting [2]) lay within 0.5 to 5 µM; at PKC epsilon (setting [2]), 5 to 50 µM.
Take “N-{2-Amino-2-[4-(pyridin-4- ylcarbamoyl)-phenyl]-ethyl}- nicotinamide [Compound 107]”: the IC50 at human ROCKα/ROCKII mix (setting [2]) and at PKC epsilon (setting [2]) was 0.5 to 5 µM in each case.
As for “4-[1-amino-2-(2-pyrazol-1-yl- ethylcarbamoyl)-ethyl]-N- pyridin-4-yl-benzamide [Compound 312]”, the results for the IC50 at human ROCKα/ROCKII mix (setting [1]) and at PKC epsilon (setting [1]) were 0.05 to 0.5 µM and 0.5 to 5 µM, respectively.
Turning to `NC(c1ccc(C(=O)Nc2ccncc2)cc1)C1CCCN1C(=O)C1CC(=O)c2ccccc21` (stereo not shown) [Compound 609, 4-{Amino-[1-(3-oxo-indane-1-carbonyl)-pyrrolidin-2-yl]-methyl}-N-pyridin-4-yl-benzamide], the IC50 against human ROCKα/ROCKII mix and on PKC epsilon was 0.5 to 5 µM throughout.
For `NC(CNC(=O)C1Cc2ccccc21)c1ccc(C(=O)Nc2ccncc2)cc1` (stereo not shown) [Compound 161, Bicyclo[4.2.0]octa-1,3,5-triene-7-carboxylic acid {2-amino-2-[4-(pyridin-4-ylcarbamoyl)-phenyl]-ethyl}-amide], the IC50 at human ROCKα/ROCKII mix (setting [2]) fell in the range of 0.05 to 0.5 µM; on PKC epsilon (setting [2]) it was 0.5 to 5 µM.
`CC(CNC(=O)CC(N)c1ccc(C(=O)Nc2ccncc2)cc1)c1ccccc1` (stereo not shown) [Compound 283, 4-[1-Amino-2-(2-phenyl-propyl-carbamoyl)-ethyl]-N-pyridin-4-yl-benzamide]: the IC50 lay in the range of 0.05 to 0.5 µM on human ROCKα/ROCKII mix (setting [1]) and 0.5 to 5 µM at PKC epsilon (setting [1]).
On to `CN(CC(N)c1ccc(C(=O)Nc2ccncc2)cc1)C(=O)C1(c2ccc(F)c(F)c2)CCCC1` (stereo not shown) [Compound 488, 4-(1-Amino-2-{[1-(3,4-difluoro-phenyl)-cyclopentanecarbonyl]-methyl-amino}-ethyl)-N-pyridin-4-yl-benzamide], for which the IC50 on human ROCKα/ROCKII mix and on PKC epsilon was 0.5 to 5 µM throughout.
For `COc1ccc(CC(=O)N2CCCC2C(N)c2ccc(C(=O)Nc3ccncc3)cc2)cc1` (stereo not shown) [Compound 528, 4-(Amino-{1-[2-(4-methoxy-phenyl)-acetyl]-pyrrolidin-2-yl}-methyl)-N-pyridin-4-yl-benzamide], the IC50 at human ROCKα/ROCKII mix is 0.05 to 0.5 µM; at PKC epsilon, 0.5 to 5 µM.

Source of the values: patent US20100168102A9, “Amide Derivatives as Kinase Inhibitors” (Devgen NV, priority 2005, published 2010).
